Tests used:
[1] = General observations (body weight, litter size, serum testosterone, other tissues); format: in vivo, rat
Method: In Vivo Procedures: Gestating outbred Sprague-Dawley and inbred Fisher mother rats from timed, pregnant colonies housed at the Washington State University Vivarium, were given intraperitoneal injections of vinclozolin (100 mg/kg/day) and methoxychlor (200 mg/kg/day) from embryonic day 8-15 (E8-E15, sperm positive vaginal smear date=E0) of gestation (F0 generation) as previously described. Gestating mothers administered vehicle, sesame oil or DMSO, served as controls. At least 6 lines (individual F0 injected females) were generated for controls and treated groups for these analyses. Male rats from control and treated groups were collected at P60-P180 for analyses. F1 treated males were bred to F1 treated females to generate the F2 treated generation and F2 treated males were bred to F2 treated females to generate the F3 generation and the F3 were bred in the same manner to generate the F4 generation. Rats for the control groups were bred in the same manner for all the generations. No inbreeding or sibling crosses were generated. The outcross group (VOC) were generated by breeding the F2 treated males with wild-type females (total of 6 litters) and reverse outcross group (RVOC) was generated by breeding F2 treated females with wild-type males (total of 3 litters). Control (n=4) and treated (n=4) male offspring from the F1 generation from Fisher strain rats were collected at P6 for DNA methylation analysis, see below. All procedures have been approved by the Washington State University Animal Care Committee. The number of animals used for replicates in the experiments (i.e. n value) are as follows for vinclozolin treatment: F1 (control 11, treated 12); F2 (control 19, treated 30); F3 (control 19, treated 26); F4 (control 10, treated 17); VOC (18); and RVOC (6). For methoxychlor treatment animal number was for F1 (control 6, treated 9) and F2 (control 16, treated 22).

F1 generation testis = details: cited from earlier work

## COc1ccc(C(c2ccc(OC)cc2)C(Cl)(Cl)Cl)cc1 [methoxychlor]
[1]; all the animals
  serum testosterone levels: normal
[1]; endocrine disruptor treatment, F1
  effect on total body weight: no effect
[1]; rat, in vivo
  gross abnormality in any other tissues examined: No gross abnormality
F1 generation testis; gestating mother exposed E8-E15, 100 or 200 mg/kg i.p. daily
  adult F1 generation testis phenotype: reduced spermatogenic capacity, increased spermatogenic cell apoptosis and decreased sperm number and motility
F1 generation testis; transient exposure E15-E20
  effect on the F1 generation testis: no effect

From patent publication US8586307B2, “Methods for diagnosing epigenetic, transgenerational effects of environmental toxicants on mammalian germ-lines and treating associated diseases” (priority 2005, dated 2013)
